Consider one compound from patent US8222261B2, “Chemical compounds” (GlaxoSmithKline, LLC, priority 2006, dated 2012).

One experiment concerns Male Sprague Dawley rats. In words: Whole body insulin sensitivity, euglycemic hyperinsulinemic clamp in rats. It is filed as in vivo. The conditions noted are these: 10 mg/kg oral. On the procedure: Male Sprague Dawley rats, weighing at 300-350 gram, had catheters surgically implanted into the jugular and femoral veins and allowed to recover for one week following the surgery. On the day before the experiment, food was removed in the afternoon to fast the animals overnight. The following morning animals were randomly assigned to two treatment groups, vehicle (n=7) and or 10 mg/kg of a GPR119 agonist (Example 1, n=9). Blood samples were collected from the jugular vein for baseline glucose measurements prior to oral administration of the respective treatment. The euglycemic hyperinsulinemic clamp was initiated approximately 90 minutes following oral administration of the respective treatments, by starting the constant insulin infusion at a rate of 1 mU/kg/min human insulin (Humulin, Eli Lilly and Company, Indianapolis, Id.) into the femoral vein of conscious animals. Whole blood glucose levels were measured every 10 minutes throughout the clamp. As the plasma glucose levels began to fall exogenous glucose infusion was started at a variable rate adjusted to achieve a stable plasma glucose level of 90-100 mg/dl. The glucose infusion rate required to maintain euglycemia was recorded throughout the experiment for each animal, and represents a measure of insulin sensitivity. Plasma glucose and human insulin levels were measured at the end of the clamp (at 180 min) as described above. At the end of the study the rats were sacrificed by an overdose of Nembutal.
Data is represented as box plots summarizing the distribution of data for each treatment group, as described above. Horizontal lines represent the mean data. […] The data is represented as mean GIR±SEM. At steady state, 180 minutes after starting the clamp, the glucose infusion rate required to maintain euglycemia in Example 1 treated animals were three times that of vehicle treated animals.

A further experiment has as its system C57BL/6 male mice. Put plainly: Effect of a GPR119 agonist on circulating GLP-1 and GIP in vivo in mice. The conditions noted are these: fasted mice, 1, 3, 10, 30 or 60 mg/kg oral gavage, 60 min after dosing. On the procedure:
Ten weeks old C57BL/6 male mice (Taconic Farms, USA) were fasted overnight then randomly distributed into 6 treatment groups (n=10 mice per treatment group) receiving either vehicle (0.5% HPMC/0.1% Tween80), or a GPR119 agonist (Example 1) at five different doses (1, 3, 10, 30 or 60 mg/kg) by oral gavage. All animals were dosed with a volume of 10 mL/kg of their designated treatment. Sixty minutes after the oral gavage the mice were anesthetized using isofluorane for collection of blood samples by cardiac puncture. All mice were euthanized by cervical dislocation immediately following the cardiac puncture. […] Total GLP-1 levels were determined using a MULTI-ARRAY® electrochemoluminescence assay from Meso Scale Discovery (Cat #K110-FAC-2; Gaithersburg, Md.). Total GIP levels were determined using an ELISA assay (Cat# EZRMGIP-55K, Linco Diagnostic Services, St Charles, Mo.).
Data is represented as box plots summarizing the distribution of individual data point for each treatment group. […] FIG. 1 and FIG. 2 show total GLP-1 and total GIP respectively measured in circulation following administration of vehicle or a GPR119 agonist (Example 1) at doses as indicated.

The subject of a further experiment is Male Wistar rats. Put plainly: Glucose stimulated insulin secretion in rats, hyperglycemic clamp. It is filed as in vivo. On the procedure: Male Wistar rats (Taconic farms, USA), weighing 300-350 gram, had catheters surgically implanted into the jugular and femoral veins and allowed to recover for one week following the surgery. On the day before the experiment, food was removed in the afternoon for an overnight fast. The following morning animals were randomly assigned to three treatment groups, vehicle (n=19) and either 1 mg/kg (n=8) or 10 mg/kg (n=8) of a GPR119 agonist (Example 1), and baseline blood samples were collected from the jugular vein. Animals were then administered either vehicle or Example 1 by oral gavage. A second blood sample was collected approximately 90 minutes after the oral gavage immediately prior to starting the hyperglycemic clamp. The clamp was initiated by infusing an empirically determined glucose bolus over 15-30 seconds into the femoral vein, followed by a variable rate glucose infusion adjusted to achieve a stable plasma glucose level of 190-210 mg/dl. After infusion of the glucose bolus, blood samples were collected every 5 minutes for glucose measurements. Samples for C-peptide level were collected a 2, 5, 10, 15, 20, 25, 30, 46, 60, 90 and 120 minutes during the hyperglycemic clamp. C-peptide was measured as a surrogate for insulin as it is co-secreted with insulin in equimolar amount with lower hepatic clearance, thus a better reflection of insulin secretion from the pancreatic β-cells. All blood samples were placed in individual tubes containing a gel clot activator (Cat # T-MG, Terumo Medial Corporation, Elkton, Md.) and allowed to clot in room temperature for 20 min before centrifugation and collection of serum. Glucose levels were measured using an Olympus AU640 analyzer (Olympus America Inc, Melville, N.Y.), and C-peptide levels by an RIA (Linco Diagnostic services, St Charles, Mo.). The rats were sacrificed at the end of the study by an overdose of Nembutal.
There was no difference in plasma glucose levels between treatment groups. […] The characteristic biphasic insulin secretion response (measured as an increase in C-peptide levels) elicited by the rapid increase in plasma glucose levels is shown in FIG. 13, with the first phase occurring within the first 5 minutes and the second phase from 15 minutes and beyond.

The subject of another experiment is Male Sprague-Dawley rats. In words: Effect on circulating GLP-1 and GIP in vivo in rats. The conditions noted are these: 10 mg/kg oral. On the procedure:
On the day before the experiment, food was removed in the afternoon and the following morning animals were randomly assigned to two treatment groups, vehicle (n=7) or a GPR119 agonist (Example 1; n=8). Blood samples were collected prior to, and 90 minutes following oral administration of either vehicle (0.5% HPMC/0.1% Tween80) or 10 mg/kg of Example 1. Blood samples were treated as described above and analyzed for incretin hormones, plasma glucose and insulin. The rats were sacrificed at the end of the study by an overdose of Nembutal® pentobarbital.
Data is represented as line graphs of the measurements prior to gavage (Pre) and 90 min following administration of vehicle or GPR119 agonist (Post) analyzed for total GLP-1 (FIG. 7), total GIP (FIG. 8), plasma glucose (FIG. 9) and insulin (FIG. 10) for individual animals.

The mark [1] stands for this setting: rats, end of clamp (180 min), between treatment groups.
Where [2] appears, read: fasted rats, 90 min after dosing vs pre-dose.
[3] abbreviates: rats, 90 min, vs vehicle or baseline.

In the case of `CC(C)OC(=O)N1CCC(Oc2ncnc3c2CCN3c2ccc(S(C)(=O)=O)cc2F)CC1` [Example 1, 1-Methylethyl 4-({7-[2-fluoro-4-(methylsulfonyl)phenyl]-6,7-dihydro-5H-pyrrolo[2,3-d]pyrimidin-4-yl}oxy)-1-piperidinecarboxylate], the “whole body insulin sensitivity” value in the experiment with Male Sprague Dawley rats (normal rats, euglycemic hyperinsulinemic clamp) is on record as “enhances”. Also, in the experiment with Male Sprague Dawley rats (setting [1]), the “euglycemia (plasma glucose at the end of the clamp)” value is “no significant difference” and the “steady state insulin exposure” value was “no significant difference”. Moreover, the “glucose infusion rate required to maintain euglycemia, relative to vehicle” value in the experiment on Male Sprague Dawley rats (rats, steady state 180 minutes after starting the clamp, insulin 1 mU/kg/min) is recorded as “three times”. In the experiment on C57BL/6 male mice, the “circulating total GIP levels” value is given as “dose dependent increase” and the “circulating total GLP-1 levels” value is “dose dependent increase”. Also, the “glucose infusion rates (GIR) required to sustain the hyperglycemic clamp” value with Male Wistar rats (10 mg/kg oral, compared to 1 mg/kg or vehicle) is given as “required more exogenous glucose”. For the same compound, the “C-peptide levels (surrogate for insulin secretion)” value with Male Wistar rats (10 mg/kg oral, compared to vehicle or 1 mg/kg, throughout the hyperglycemic clamp) is “significantly increased”. The “plasma glucose levels achieved during the hyperglycemic clamp” value with Male Wistar rats (1 or 10 mg/kg oral vs vehicle, clamp started about 90 min after gavage) is “no difference”. The “first (0-5 min) and second phase (15-90 min) glucose stimulated insulin secretory response” value in the experiment with Male Wistar rats (hyperglycemic clamp) is on record as “augments”. Further, in the experiment on Male Sprague-Dawley rats (setting [2]), the “circulating levels of total GIP” value is on record as “increases” and the “circulating levels of total GLP-1” value was “increases”. Moreover, in the experiment with Male Sprague-Dawley rats (setting [3]), the fasting glucose result is listed as “not significantly affected” and the fasting insulin result was “not significantly affected”.
